Results: patent US7790731B2 (Banyu Pharmaceutical Co. Ltd., priority 2005, dated 2010)

Legend:
male SD rats = test: Intracerebral histamine release promotion test; format: in vivo; conditions: 30 mg/kg orally, Pargyline-treated male SD rats, 2 hours after administration
Description: A histamine 3 receptor antagonist or inverse-agonist is reported to promote histamine release at the nerve end presynaptic region in a brain. For the purpose of investigating the effect of the medicine of the invention on these, a test compound suspended in an aqueous 0.5% methyl cellulose solution was orally administered to male SD rats (7 to 10-week age, 200 to 300 g) treated with a monoamine oxidase inhibitor (Pargyline). 2 hours after the medicine administration, the rats were killed in euthanasia, and the brain tissue was rapidly taken out. According to a Miyamoto et al's method, the concentration of histamine and its main metabolite, tele-methylhistamine in the brain tissue was measured [see Analytical Biochemistry, Vol. 334, p. 89 (2004)].

[1] = Thermal and light stability compared with the amorphous compound; format: physicochemical; conditions: as compared with amorphous compound

light stability [1]: excellent
thermal stability [1]: excellent
Compound: Cc1nc2cccc(C(F)(F)F)c2c(=O)n1-c1ccc(OCCCN2CCCC2)cc1 [form I crystal, 2-methyl-3-{4-[3-(1-pyrrolidinyl)propoxy]phenyl}-5-trifluoromethyl-4(3H)-quinazolinone]
brain tele-methylhistamine level (male SD rats): significantly increased
